Consider four compounds from PMC4311240, “Rationally Designed Peptidomimetic Modulators of Aβ Toxicity in Alzheimer's Disease” (Scientific Reports, 2015).

Non-standard residues stand in square brackets, D forms with d. Residues, ends and D or L forms follow the SMILES beside them. *: point of attachment. Acetyl(thymin-1-yl) = Cc1cn(CC(=O)*)c(=O)[nH]c1=O; Sar = CNCC(=O)O

The target of series [1] is T1, Aβ42 fibrillar aggregates (Homo sapiens, UniProt P05067).
T1 construct: Aβ42 peptide (0.25 mg) (Calbiochem, Merck) was dissolved in hexafluoro-2-propanol; purchased Calbiochem, Merck
As to the kind of experiment: ThT fluorescence reversal (dissolution) assay of preformed Aβ42 fibrillar aggregates. The format is biochemical. The settings on record: n = 3; for dissolution efficiency, fibril reversal assay (ThT): Aβ42 fibrillar aggregates grown for 2 days, 20 μM, 1:2 stoichiometry, day 6, 37°C; for dissolution efficiency, time-dependent reversal ThT assay: Aβ42 aggregates 20 μM, 1:2, 37°C. The procedure:
ThT assay has been widely used to monitor the transformation of Aβ42 monomers to fibrillar aggregates. We employed ThT assay to evaluate the ability of our peptidomimetic candidates to either prevent fibril assembly (inhibition) or to break down preformed fibrils of Aβ42 (dissolution). For the inhibition assay all the peptidomimetics (P2, P3, P4 and P5) along with control peptide P1 were added at 0 h of the experiment, whereas for the aggregates reversal (dissolution) assay they were added to Aβ42 fibrillar aggregates grown for 2 days. Once they had been incubated together, Aβ42/inhibitors were analyzed using ThT by measuring the fluorescence changes. First, we performed concentration-dependent experiments where different ratios of P1, P2, P3, P4 and P5 were incubated with fixed concentrations of Aβ42 (20 μM) and its aggregates to study their effect on both inhibition and reversal assay, respectively. Experiments were performed at stoichiometric ratios (Aβ42/inhibitor) of 1:0.2, 1:1, and 1:2 with the fixed concentration of Aβ42 of 20 μM. […] However, the efficiencies of P4 and P5 were only marginally better in inhibition assay compared to reversal assay with a difference of about 15%.
Aβ42 peptide (0.25 mg) (Calbiochem, Merck) was dissolved in hexafluoro-2-propanol (HFIP, 0.2 mL) and incubated at room temperature for 1 h. HFIP was then removed by the flow of nitrogen and further dried under vacuum. HFIP-treated Aβ42 was then dissolved in 10 mM PBS buffer to a concentration of 200 μM at pH 7.4. The solution was incubated at 37°C for 48 h with constant shaking for fibril formation. The formation of Aβ42 fibrillar aggregates was confirmed by ThT fluorescence, CD measurements and electron microscopy. For oligomers, HFIP-treated Aβ42 dissolved in 10 mM PBS buffer and incubated at 4°C for 24 h[44].
Fluorescence spectral measurements were carried out using Perkin Elmer Model LS 55 fluorescence spectrophotometer. […] A ThT concentration of 5–10 µM was used for amyloid fibrillization and dissolution assay based on the Aβ42 fibrillar concentration.
(§1) Prior to the experiment, P1, P2, P3, P4 and P5 were dissolved in HFIP and were evaporated under a stream of dry nitrogen. The dried samples were re-suspended in 10 mM PBS buffer at pH 7.4. An aliquot of Aβ42 peptide was then added to the solution with or without one of the inhibitor P1, P2, P3, P4 and P5. The mixtures were vortexed for approximately 30 s and then incubated at 37°C for 2–3 days without shaking. The final concentration of Aβ42 in the mixture was 20 μΜ. For a dissolution experiment, Aβ42 was incubated alone for 2 days to allow fibrils to form. An aliquot of the formed fibrils in 10 mM PBS buffer was then added to the inhibitor peptidomimetics. The amount of fibrils remaining intact was assayed using that fluorescence, CD measurements and transmission electron microscopy as described below.

The target of series [2] is T2, Aβ42 aggregates (Homo sapiens, UniProt P05067).
T2 construct: Aβ42 peptide (0.25 mg) (Calbiochem, Merck) was dissolved in hexafluoro-2-propanol; purchased Calbiochem, Merck
As to the kind of experiment: CD measurement, reversal assay (β-sheet band at 218 nm). The format is biochemical. As to conditions: Aβ42 aggregates 20 μM, inhibitor 40 μM, six days at 37°C.
Text: To further validate our results, we performed CD studies. Aβ42 aggregates are predominantly made of β-sheet assembly, which can be assessed by CD measurements. […] In this assay, we monitored the intensity of negative CD band centered at 218 nm, characteristic of a β-sheet structure and a decrease in its intensity was correlated with a reduction in the toxic Aβ42 aggregates (supplementary Fig. S2). In these CD measurements, samples similar to ThT fluorescence assays were used to allow for direct comparison between the two experiments. In the case of inhibition assay, Aβ42 monomers were incubated with inhibitor candidates for 4 days at 37°C and then CD measurements were performed to evaluate the inhibition efficiency. […] In the reversal assay, Aβ42 aggregates were incubated with the inhibitor candidates for six days at 37°C and then, CD measurements were performed. CD data was in excellent agreement with the dissolution efficiency obtained in reversal assay experiments monitored by the ThT assay (Fig. 2). […] Overall, inhibition and dissolution efficiencies obtained in the ThT fluorescence assay and CD measurements were in good agreement.
The circular dichroic (CD) spectra were recorded using a Jasco J-815 spectrometer under nitrogen atmosphere. Peptides were dissolved in 10 mM PBS buffer at pH 7.4 at concentrations of 20 µM. A 10 mm path length was used for the measurements. Four to five scans were acquired from 200 to 300 nm.
as §1

The subject of series [3] is trypsin. The series can be described thus: Protease stability assay, trypsin. In kind it is in vitro ADME. As to conditions: 100 mM NH4HCO3 buffer pH 8, 50 μM, 37°C; for stability towards trypsin: 24 h, RP-HPLC; for remaining at 24 h, 50 μM: RP-HPLC at 254 nm, triplicates, read-out: peptidomimetic intact after 24 h with trypsin. Here is the method: (§2) Enzymes trypsin and pepsin are well-known to cleave the C-terminal of lysine and amide bond involving aromatic amino acids, respectively. Peptides were incubated with both the enzymes at 37°C for 24 h, and the amount of the residual intact peptide was monitored in each case at different time points (0, 3, 6, 12 and 24 h) using RP-HPLC. […] Overall, the stability assays with blood plasma and proteolytic enzymes led to similar conclusions and confirmed the stability, order P5>P4≫P3≈P2>P1.
(§3) Preliminary stability assays were performed using the enzymes pepsin and trypsin. For all assays, peptides were incubated with the enzyme at 37°C for 24 h. All digestion assay data were analyzed by RP-HPLC. Trypsin and pepsin stocks were prepared in 100 mM ammonium bicarbonate (NH4HCO3) buffer (pH 8) and 100 mM formic acid buffer (pH 2), respectively. All the peptides/peptidomimetics (P1, P2, P3, P4 and P5) were incubated with trypsin and pepsin enzymes in 100 mM NH4HCO3 buffer (pH 8) and formic acid buffer (pH 2), respectively, at 37°C. The trypsin reactions were halted with 0.05% formic acid, and the pepsin reactions were halted with 100 mM NH4HCO3. Then the samples were analyzed by RP-HPLC using a linear gradient of solvent B (0.3 mL/min flow rate); similar data points were collected at various time points between 0 and 24 h (1 h, 3 h, 6 h, 12 h and 24 h) during incubation and analyzed in triplicates. The percentages of recovered peptide/peptidomimetics were detected by integration at 254 nm[46].
(§4) Figure S6. Stability towards protease enzymes pepsin and trypsin. P1, P2, P3, P4 and P5 ([…]) were incubated in with enzymes pepsin a and trypsin b in 100 mM formic acid buffer (pH 2) and 100 mM NH4HCO3 buffer (pH 8) respectively. Percentage of intact peptide in each case was monitored at different time points for a duration of 24 h. P1, P2 and P3 degraded with time, […]
(§5) (1 picture or pasted object on this page, not shown here)

For series [4], the system named is pepsin. As to the kind of experiment: Protease stability assay, pepsin. In kind it is in vitro ADME. As to conditions: 100 mM formic acid buffer pH 2, 50 μM, 37°C; for stability towards pepsin: 24 h, RP-HPLC; for remaining at 24 h, 50 μM: RP-HPLC at 254 nm, triplicates, read-out: peptidomimetic intact after 24 h with pepsin. The procedure: as §2, §3, §4, §5

T1 sequence (P05067 672-713 limits assumed): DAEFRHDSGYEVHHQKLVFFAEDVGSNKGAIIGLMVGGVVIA
T2 sequence (P05067 672-713 limits assumed): as above

As to `Cc1cn(CC(=O)N[C@@H](CCCCN)C(=O)N[C@@H](CC(C)C)C(=O)N[C@H](C(=O)N[C@@H](Cc2ccccc2)C(=O)N[C@@H](Cc2ccccc2)C(N)=O)C(C)C)c(=O)[nH]c1=O` [P2], in series [1], the “dissolution efficiency, fibril reversal assay (ThT)” value (from here on “dissolution efficiency … (ThT)”) is reported as 45% and the “dissolution efficiency, time-dependent reversal ThT assay” value is 35%. In series [2], the “dissolution efficiency by CD, reversal assay” value (shortened to “dissolution efficiency by CD”) is listed as 40%. In series [3], the “stability towards trypsin” value is on record as “less stable”. In addition, in series [4], the “stability towards pepsin” value is reported as “less stable”.
For the compound `CC(C)C[C@H](NC(=O)[C@H](CCCCN)NC(=O)CC1C(=O)NC(=O)NC1=O)C(=O)N[C@H](C(=O)N[C@@H](Cc1ccccc1)C(=O)N[C@@H](Cc1ccccc1)C(N)=O)C(C)C` [P3], in series [1], the “dissolution efficiency … (ThT)” value was 34% and the “dissolution efficiency, time-dependent reversal ThT assay” value is 25%. Besides, the “dissolution efficiency by CD” value in series [2] worked out at 25%. Also, the “stability towards trypsin” value in series [3] was “less stable”. Besides, the “stability towards pepsin” value in series [4] is “less stable”.
`Cc1cn(CC(=O)N(C)CC(=O)N[C@@H](CC(C)C)C(=O)N(C)CC(=O)N[C@@H](Cc2ccccc2)C(=O)N(C)CC(=O)N[C@@H](C)C(N)=O)c(=O)[nH]c1=O` [P4] ({Acetyl(thymin-1-yl)}-[Sar]L[Sar]F[Sar]A-NH2): the “dissolution efficiency … (ThT)” value in series [1] is given as 80%. The “dissolution efficiency, time-dependent reversal ThT assay” value in series [1] is 68%. In addition, the “dissolution efficiency by CD” value in series [2] is on record as over 75%. Besides, the remaining at 24 h, 50 μM in series [3] and in series [4] was over 90% each time.
`Cc1cn(CC(=O)N[C@@H](CCCCN)C(=O)N(C)CC(=O)N[C@H](C(=O)N(C)CC(=O)N[C@@H](Cc2ccccc2)C(=O)N(C)CC(N)=O)C(C)C)c(=O)[nH]c1=O` [P5] ({Acetyl(thymin-1-yl)}-K[Sar]V[Sar]F[Sar]-NH2): in series [1], the “dissolution efficiency … (ThT)” value is recorded as 80% and the “dissolution efficiency, time-dependent reversal ThT assay” value amounted to 75%. The “dissolution efficiency by CD” value in series [2] is on record as over 75%. Moreover, the remaining at 24 h, 50 μM in series [3] is over 90%. In addition, the remaining at 24 h, 50 μM in series [4] is over 90%.
